Columns and labels:
[1] = CytoTox-Glo Cytotoxicity Assay; type: cell-based; conditions: mouse; HL-1 cells, 100 μM solutions, 24 h incubation
Experimental: Cell viability was assessed using the CytoTox-Glo Cytotoxicity Assay according to the manufacturing procedure (Promega GmbH). Briefly, HL-1 cells were cultivated for 24 h in black-walled, clear-bottom 96-well microplates (Corning) covered with fibronectin in DMEM, containing different concentrations of the tested compound (10,000 cells/well). Luminescence of a luminogenic peptide substrate was measured before and after the addition of the lysis reagent (digitonin). The viable cell contribution was determined by a subtractive method. 0.1% DMSO-treated cells were taken as a control.

[2] = Membrane permeability, PermeaPad Plate (cell-free transport model); type: in vitro ADME; conditions: for Pe: 24 h, room temperature; for Pe class (low/medium/high; poor): class word printed beside Pe, no key given
Experimental: Membrane permeability was assessed using PermeaPad Plate according to the manufacturing procedure (innoME GmbH, Espelkamp, Germany). Briefly, 200 μL of water was added into the acceptor plate. 200 μL of 100–500 μM test compound in water was added directly to the well membranes of the donor plate. The donor plate contains a biomimetic membrane for simulating passive mass transfer through different barriers in the body. Then, the donor plate was placed into the acceptor plate wells and incubated at room temperature for 24 h in the dark. To determine the peak absorbance of test compounds, absorbance spectra of acceptor solutions and initial solutions for each test compound were read out. The permeability rate (Pe) was calculated using the formula:
[drawing 1] , where ODA is the absorbance of acceptor solution and ODE is the absorbance of the standard solution; if the compound is able to permeabilize the membrane and fully reach equilibrium, 250 μM will be the final concentration of solution in the donor and acceptor wells. The coefficient C was calculated using the formula:
[drawing 2] , where VA is the acceptor volume (cm^3), VD is the donor volume (cm^3), the membrane area is 0.24 cm^2, and the time is 86,400 s.

SERCA2a = molecular target: T1, SERCA2a (Mus musculus, UniProt O55143); assay: Caffeine-induced Ca2+ release assay in HL-1 cells (FLIPR Calcium 6); type: cell-based; conditions: HL-1 cells, 2 h incubation at various concentrations, 10 mM caffeine
T1 construct: host or cells: HL-1 cells
Text: It is known that caffeine stimulates the release of calcium from intracellular stores in cells by acting as a RyR activator.[39],[40] The binding site for caffeine is located on the cytosolic side of the protein between the C-terminal and the S2S3 domain.[41] When caffeine binds to RyR2, it interacts with specific amino acids on the protein, which causes conformational changes in the protein’s structure.[42] This opens the RyR2 channel pore, enabling the mass release of calcium ions from the SR. We investigated the effect of caffeine-induced Ca^2+ release in HL-1 cells treated with cytosolic Ca^2+ indicator FLIPR Calcium 6 (Molecular Devices). The HL-1 cell line is an immortalized mouse cardiomyocyte cell line commonly used to study the effects of various substances on cell function.[43] If the tested compound modulates SERCA2a activation, it will cause an increase in Ca^2+ concentration in the SR and the effect of a fixed dose of caffeine on SR Ca^2+ release will be potentiated by increasing doses of a proposed SERCA activator.[26] As a positive control, we used CDN1163, a small-molecule SERCA activator, which is at present in a clinical trial due to its potential therapeutic use for certain cardiac conditions.[27]
HL-1 cells (50,000 per well) were cultivated for 24 h in black-walled, clear-bottom 96-well microplates (Corning, Amsterdam, The Netherlands) covered with fibronectin/gelatin (Merck KGaA, Darmstadt, Germany) in a humidified incubator at 37 °C and 5% CO2.
Changes in Ca^2+ concentration were measured on a multiwell plate reader TECAN Spark 20 M using a FLIPR 6 Calcium Assay Kit from Molecular Devices (Molecular Devices LLC, München, Germany) at 37 °C. The 1000 × stock solutions of the test compounds were prepared in DMSO. A 100 μL solution of test compound in Tyrode’s solution containing FLIPR Calcium 6 dye was incubated for 2 h at 37 °C and 5% CO2 in a humidified incubator. The time courses were recorded in each well. Fluorescence was evoked at 485 nm excitation wavelength and read out in a bottom-read mode at 525 nm. Data were recorded every 2 s, exposure −20 flashes, excitation bandwidth −10 nm, emission bandwidth −15 nm. To initiate Ca^2+ influx, 25 μL of 50 mM caffeine solution in Tyrode’s solution containing 2 mM CaCl2 was injected in each well (speed 100 μL/s) at the 10 s time point, resulting in 10 mM final concentration in the well. The differences between the caffeine-induced peak minus basal fluorescence, ΔFCaff, were taken into account for the analysis. The Tyrode’s solution +0.1 v/v% DMSO was used as a control. The dose–response curves were calculated using the software package GraphPad Prism version 8.3.1. All data are presented as mean ± SD from eight independent experiments. Y = bottom + (top – bottom)/(1 + 10^((LogEC50 – X) × HillSlope)) was used, where HillSlope describes the steepness of the curve and top and bottom are plateaus in the units of the Y axis.

RyR2 = molecular target: T2, RyR2 (Mus musculus, UniProt E9Q401); assay: Time-lapse [Ca2+]ER assay (RyR2 R-CEPIA1er assay) in HEK-293 cells with inducible WT RyR2; type: cell-based; conditions: for effect on [Ca2+]ER / R-CEPIA1er fluorescence (F/F0): 25 μM, vs 0.1 v/v% DMSO
T2 construct: expressed in transfected cells; host or cells: HEK-293 cells stably expressing R-CEPIA1er with doxycycline-inducible WT RyR2
T2 sequence (E9Q401 whole entry): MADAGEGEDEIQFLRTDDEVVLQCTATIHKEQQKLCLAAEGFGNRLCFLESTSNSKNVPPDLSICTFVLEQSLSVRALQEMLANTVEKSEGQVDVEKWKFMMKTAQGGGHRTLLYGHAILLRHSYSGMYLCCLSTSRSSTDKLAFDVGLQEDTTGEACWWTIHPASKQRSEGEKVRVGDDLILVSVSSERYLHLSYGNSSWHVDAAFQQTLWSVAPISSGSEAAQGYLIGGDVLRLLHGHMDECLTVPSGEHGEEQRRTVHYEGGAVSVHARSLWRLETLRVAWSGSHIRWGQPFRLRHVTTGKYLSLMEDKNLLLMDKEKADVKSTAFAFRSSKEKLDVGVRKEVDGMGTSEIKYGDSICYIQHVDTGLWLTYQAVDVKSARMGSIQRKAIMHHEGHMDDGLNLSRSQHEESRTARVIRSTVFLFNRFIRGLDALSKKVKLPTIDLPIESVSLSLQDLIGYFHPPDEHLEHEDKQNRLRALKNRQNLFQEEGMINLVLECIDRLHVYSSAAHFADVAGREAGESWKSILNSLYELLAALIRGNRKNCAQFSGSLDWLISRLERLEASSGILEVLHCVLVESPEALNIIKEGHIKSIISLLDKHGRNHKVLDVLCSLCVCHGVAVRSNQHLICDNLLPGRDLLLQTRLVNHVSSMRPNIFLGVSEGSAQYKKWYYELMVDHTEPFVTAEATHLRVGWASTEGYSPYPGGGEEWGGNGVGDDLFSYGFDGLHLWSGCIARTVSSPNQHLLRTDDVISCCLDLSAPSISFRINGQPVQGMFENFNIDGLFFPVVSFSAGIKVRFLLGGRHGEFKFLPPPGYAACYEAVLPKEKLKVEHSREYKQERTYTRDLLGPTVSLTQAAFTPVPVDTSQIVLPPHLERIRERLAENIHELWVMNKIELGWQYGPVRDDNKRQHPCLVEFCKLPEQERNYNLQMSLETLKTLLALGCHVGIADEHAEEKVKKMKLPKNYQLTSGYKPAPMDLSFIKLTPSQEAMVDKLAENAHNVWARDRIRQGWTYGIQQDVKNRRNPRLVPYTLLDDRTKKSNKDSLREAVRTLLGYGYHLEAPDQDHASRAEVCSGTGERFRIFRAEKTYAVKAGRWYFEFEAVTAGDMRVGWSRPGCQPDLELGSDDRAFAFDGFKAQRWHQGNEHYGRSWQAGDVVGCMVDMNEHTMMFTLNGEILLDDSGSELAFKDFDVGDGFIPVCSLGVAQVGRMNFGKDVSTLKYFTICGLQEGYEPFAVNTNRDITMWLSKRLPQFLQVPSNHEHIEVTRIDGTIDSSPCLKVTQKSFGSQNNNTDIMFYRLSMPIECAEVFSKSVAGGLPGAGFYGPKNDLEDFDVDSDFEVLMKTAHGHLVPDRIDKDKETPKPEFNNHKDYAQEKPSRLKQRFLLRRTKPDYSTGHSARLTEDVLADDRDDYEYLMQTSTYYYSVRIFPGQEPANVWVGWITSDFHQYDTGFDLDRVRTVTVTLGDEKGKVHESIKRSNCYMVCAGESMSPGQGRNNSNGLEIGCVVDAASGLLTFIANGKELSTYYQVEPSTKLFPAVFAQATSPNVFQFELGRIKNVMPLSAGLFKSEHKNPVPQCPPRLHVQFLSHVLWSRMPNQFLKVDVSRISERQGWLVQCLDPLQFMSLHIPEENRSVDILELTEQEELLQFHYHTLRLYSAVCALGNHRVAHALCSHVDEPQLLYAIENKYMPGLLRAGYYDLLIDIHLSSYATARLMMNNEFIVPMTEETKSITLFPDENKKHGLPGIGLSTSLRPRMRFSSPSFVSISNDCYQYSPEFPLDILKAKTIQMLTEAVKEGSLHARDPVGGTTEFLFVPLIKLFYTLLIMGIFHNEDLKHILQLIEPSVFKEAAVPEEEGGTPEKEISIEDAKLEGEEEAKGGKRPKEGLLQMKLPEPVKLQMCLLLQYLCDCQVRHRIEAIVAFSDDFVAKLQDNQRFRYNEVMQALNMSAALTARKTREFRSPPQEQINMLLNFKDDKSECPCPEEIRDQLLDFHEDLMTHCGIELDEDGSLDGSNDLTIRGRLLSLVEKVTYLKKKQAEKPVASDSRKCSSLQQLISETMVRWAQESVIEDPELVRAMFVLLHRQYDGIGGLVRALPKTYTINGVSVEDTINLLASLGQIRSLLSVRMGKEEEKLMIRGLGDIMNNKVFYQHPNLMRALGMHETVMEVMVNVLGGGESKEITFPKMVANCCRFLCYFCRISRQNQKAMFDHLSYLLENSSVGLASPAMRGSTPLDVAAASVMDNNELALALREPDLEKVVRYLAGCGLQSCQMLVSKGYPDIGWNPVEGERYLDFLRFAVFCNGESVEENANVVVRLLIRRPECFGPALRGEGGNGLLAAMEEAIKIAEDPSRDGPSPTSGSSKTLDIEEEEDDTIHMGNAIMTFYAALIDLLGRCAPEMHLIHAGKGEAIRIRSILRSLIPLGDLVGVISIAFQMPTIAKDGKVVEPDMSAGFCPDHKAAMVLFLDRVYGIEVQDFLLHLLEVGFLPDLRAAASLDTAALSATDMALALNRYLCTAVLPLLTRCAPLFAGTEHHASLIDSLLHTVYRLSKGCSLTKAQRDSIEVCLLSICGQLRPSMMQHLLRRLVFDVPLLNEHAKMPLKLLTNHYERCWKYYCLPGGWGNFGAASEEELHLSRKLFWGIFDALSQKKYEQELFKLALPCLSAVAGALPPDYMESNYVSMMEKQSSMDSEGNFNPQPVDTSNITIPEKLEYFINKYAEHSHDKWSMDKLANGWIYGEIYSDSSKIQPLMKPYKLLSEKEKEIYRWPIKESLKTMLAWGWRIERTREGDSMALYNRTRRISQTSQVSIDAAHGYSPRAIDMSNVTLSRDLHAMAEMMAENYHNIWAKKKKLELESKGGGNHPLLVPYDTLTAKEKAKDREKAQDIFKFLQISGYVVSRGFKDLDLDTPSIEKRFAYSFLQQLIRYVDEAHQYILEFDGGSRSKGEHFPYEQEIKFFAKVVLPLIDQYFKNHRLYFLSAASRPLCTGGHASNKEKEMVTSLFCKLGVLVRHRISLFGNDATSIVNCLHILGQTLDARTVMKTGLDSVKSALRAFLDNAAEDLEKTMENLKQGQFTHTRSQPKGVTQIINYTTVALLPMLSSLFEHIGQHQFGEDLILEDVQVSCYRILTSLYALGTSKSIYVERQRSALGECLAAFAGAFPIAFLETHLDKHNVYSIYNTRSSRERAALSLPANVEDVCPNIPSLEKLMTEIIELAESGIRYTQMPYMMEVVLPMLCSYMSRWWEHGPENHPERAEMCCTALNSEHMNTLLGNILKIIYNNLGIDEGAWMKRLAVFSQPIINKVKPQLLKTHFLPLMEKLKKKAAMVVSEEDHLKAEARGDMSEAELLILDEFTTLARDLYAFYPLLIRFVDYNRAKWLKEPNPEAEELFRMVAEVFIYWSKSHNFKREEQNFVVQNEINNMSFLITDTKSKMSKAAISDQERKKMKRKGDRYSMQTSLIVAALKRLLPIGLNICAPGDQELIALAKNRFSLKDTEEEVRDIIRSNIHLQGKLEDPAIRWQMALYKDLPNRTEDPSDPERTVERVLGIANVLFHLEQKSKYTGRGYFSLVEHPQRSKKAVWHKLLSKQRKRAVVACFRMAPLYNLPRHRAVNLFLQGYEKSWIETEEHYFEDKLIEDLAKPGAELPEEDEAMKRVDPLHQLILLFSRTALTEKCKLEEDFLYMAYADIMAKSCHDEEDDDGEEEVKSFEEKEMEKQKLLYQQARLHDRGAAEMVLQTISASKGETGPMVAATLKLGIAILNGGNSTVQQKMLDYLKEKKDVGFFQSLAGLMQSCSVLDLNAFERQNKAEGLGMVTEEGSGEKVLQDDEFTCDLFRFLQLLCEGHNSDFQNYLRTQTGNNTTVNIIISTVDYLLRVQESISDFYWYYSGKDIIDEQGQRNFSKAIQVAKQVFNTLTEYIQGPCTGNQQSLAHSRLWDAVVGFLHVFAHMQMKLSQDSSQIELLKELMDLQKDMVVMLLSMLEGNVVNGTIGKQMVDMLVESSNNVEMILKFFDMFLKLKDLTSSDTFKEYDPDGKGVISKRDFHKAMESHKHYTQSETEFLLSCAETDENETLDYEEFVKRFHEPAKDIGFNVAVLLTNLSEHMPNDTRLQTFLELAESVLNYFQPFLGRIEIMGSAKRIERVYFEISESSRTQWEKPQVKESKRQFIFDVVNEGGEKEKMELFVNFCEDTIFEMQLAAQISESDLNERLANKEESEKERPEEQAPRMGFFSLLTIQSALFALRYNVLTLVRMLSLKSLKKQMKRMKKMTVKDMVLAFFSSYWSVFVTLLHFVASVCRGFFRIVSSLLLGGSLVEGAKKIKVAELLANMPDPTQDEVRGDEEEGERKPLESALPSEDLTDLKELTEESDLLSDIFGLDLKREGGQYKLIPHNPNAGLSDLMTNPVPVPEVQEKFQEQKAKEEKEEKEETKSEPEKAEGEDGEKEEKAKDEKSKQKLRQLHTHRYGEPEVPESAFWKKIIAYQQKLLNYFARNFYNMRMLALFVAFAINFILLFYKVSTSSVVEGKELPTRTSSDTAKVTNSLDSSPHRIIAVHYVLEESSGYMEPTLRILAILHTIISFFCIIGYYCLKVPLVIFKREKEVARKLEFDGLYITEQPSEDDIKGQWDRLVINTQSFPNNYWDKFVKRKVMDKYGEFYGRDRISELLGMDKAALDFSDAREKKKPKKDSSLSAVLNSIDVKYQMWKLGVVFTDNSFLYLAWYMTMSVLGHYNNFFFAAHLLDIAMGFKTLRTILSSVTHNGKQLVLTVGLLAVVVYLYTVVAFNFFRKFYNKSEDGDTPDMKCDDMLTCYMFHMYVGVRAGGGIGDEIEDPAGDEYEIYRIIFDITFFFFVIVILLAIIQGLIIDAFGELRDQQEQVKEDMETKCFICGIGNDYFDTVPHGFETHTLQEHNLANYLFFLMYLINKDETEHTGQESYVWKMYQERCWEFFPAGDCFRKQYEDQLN
Text: To assess the functional potency of novel agents for modulating RyR2 channel activity, we measured changes in Ca^2+ levels in ER of HEK-293 cells with inducible expression of wild-type RyR2 (WT RyR2).[33],[34] Because the expression of WT RyR2 introduces an additional spontaneous Ca^2+ leak from the ER, these cells are suitable for our purpose of testing potential RyR2 stabilizers.[35] The cells additionally stably express the Ca^2+ fluorescence indicator R-CEPIA1er, which is a genetically encoded sensor protein of Ca^2+ in the ER (the cell line was a gift from T. Murayama, Department of Pharmacology, Juntendo University School of Medicine, Tokyo, Japan).[36]
The addition of these compounds, which are known to inhibit excessive cardiac RyR2 activity, should reduce Ca^2+ leak from the ER, thus increasing the R-CEPIA1er fluorescence.
The fluorescence plate reader [Ca^2+]ER assay was performed according to the slightly modified protocol of Murayama and Kurebayashi.[36] […] After the cells were inducted with doxycycline for 24 h, changes in ER calcium concentrations [Ca^2+]ER were measured on a multiwell plate reader TECAN Spark 20 M at 37 °C. The 1000 × stock solutions of the test compounds were prepared in DMSO. Briefly, the culture medium was removed and 100 μL of Tyrode’s solution containing 2 mM CaCl2 was added to the cells. The time courses were recorded in each well. Fluorescence was evoked by a 560 nm excitation wavelength and collected in a bottom-read mode at 610 nm. Data was recorded every 10 s, exposure −20 flashes, excitation bandwidth −20 nm, emission bandwidth −20 nm. 100 μL of 0–100 μM solution of test compound in Tyrode’s solution containing 2 mM CaCl2 was injected in each well (speed 100 μL/s) at the 90 s time point. […] The 0.1 v/v% DMSO and 2 mM CaCl2 Tyrode’s solution was used as a control.
The dose–response curves were calculated using the software package GraphPad Prism version 8.3.1. (GraphPad Software, Inc.). All data are presented as mean ± SD in three independent experiments. Y = bottom + (top – bottom)/(1 + 10^((LogEC50 – X) × HillSlope)) was used, where HillSlope describes the steepness of the curve, and top and bottom are plateaus in the units of the Y-axis.

Pe [2] | Pe class (low/medium/high; poor) [2] | RyR2 effect class (RyR2; 25 μM (S107 1 mM per Figure 2), HEK-293 RyR2 R-CEPIA1er cells) | effect on [Ca2+]ER / R-CEPIA1er fluorescence (F/F0) (RyR2) | SMILES | viability at 24 h, 100 μM [1] | effect on caffeine-induced Ca2+ release (in words) (SERCA2a)
1.2 10^–6 cm/s | medium |  |  | COc1ccc2c(c1)CN(C)CCS2 [S107, 4-methyl-7-methoxy-2,3,4,5-tetrahydro-1,4-benzothiazepine, reference compound] | 98% | did not show any effects on SR Ca^2+ content
1.0 10^–6 cm/s | poor permeability and low | +++ | increase in R-CEPIA1er fluorescence | COc1ccc2c(c1)CN(C(=O)C(=O)O)CCS2 [S36, reference compound] | 94% | no concentration-dependent effect
 |  |  | increase in R-CEPIA1er fluorescence | O=C1CN(/N=C/c2ccc(-c3ccc([N+](=O)[O-])cc3)o2)C(=O)N1 [dantrolene, reference compound] |  | 
 |  |  |  | Cc1ccc2cccc(NC(=O)c3ccc(OC(C)C)cc3)c2n1 [CDN1163, reference compound] |  | clear dependence of the magnitude of the caffeine effect from the concentration of CDN1163

— PMC10726367 (Journal of Medicinal Chemistry, 2023)
